{
  "source": "patent US8436178B2",
  "about": "“Imidazoquinolines with immuno-modulating properties” (AstraZeneca AB, priority 2007, dated 2013)",
  "key": {"[1]": {"molecular_target": "T1, human TLR7 (Homo sapiens, UniProt Q9NYK1)", "T1 construct": "expressed in transfected cells; host or cells: HEK293 cell line stably expressing the pNiFty2-SEAP reporter plasmid; TLR7 in pUNO vector, blasticidin selection", "T1 sequence (Q9NYK1 27-1049)": "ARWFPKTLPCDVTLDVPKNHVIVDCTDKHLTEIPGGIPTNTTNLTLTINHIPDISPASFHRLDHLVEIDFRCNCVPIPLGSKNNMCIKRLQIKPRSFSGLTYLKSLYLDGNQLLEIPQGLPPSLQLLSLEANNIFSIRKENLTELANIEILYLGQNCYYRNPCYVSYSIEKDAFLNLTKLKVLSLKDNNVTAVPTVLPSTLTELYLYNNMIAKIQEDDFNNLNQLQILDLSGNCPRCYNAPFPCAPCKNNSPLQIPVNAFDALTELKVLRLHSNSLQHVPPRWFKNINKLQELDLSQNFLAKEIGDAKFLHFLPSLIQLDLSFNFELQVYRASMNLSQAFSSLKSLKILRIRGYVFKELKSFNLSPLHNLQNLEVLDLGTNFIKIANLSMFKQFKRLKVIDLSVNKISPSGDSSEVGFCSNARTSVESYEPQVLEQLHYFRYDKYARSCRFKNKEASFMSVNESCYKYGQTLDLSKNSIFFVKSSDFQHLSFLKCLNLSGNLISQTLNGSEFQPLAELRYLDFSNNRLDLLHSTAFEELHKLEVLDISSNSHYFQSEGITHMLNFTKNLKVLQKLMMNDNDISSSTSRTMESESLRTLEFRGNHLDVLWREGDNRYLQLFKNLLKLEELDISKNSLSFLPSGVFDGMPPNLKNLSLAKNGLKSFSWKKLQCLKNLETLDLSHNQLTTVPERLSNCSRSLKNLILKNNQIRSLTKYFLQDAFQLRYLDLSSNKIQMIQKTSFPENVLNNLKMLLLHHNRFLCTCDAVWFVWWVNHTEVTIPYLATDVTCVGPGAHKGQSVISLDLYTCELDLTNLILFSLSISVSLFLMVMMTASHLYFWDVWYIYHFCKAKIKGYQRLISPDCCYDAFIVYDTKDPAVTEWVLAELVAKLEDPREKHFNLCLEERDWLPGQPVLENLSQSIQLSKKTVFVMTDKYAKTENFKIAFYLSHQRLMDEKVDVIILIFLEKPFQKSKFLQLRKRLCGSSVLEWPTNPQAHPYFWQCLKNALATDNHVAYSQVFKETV", "assay": "Human TLR7 assay (SEAP reporter in HEK293 cells)", "format": "cell-based", "settings": "SEAP induction in HEK293 cells expressing human TLR7, overnight incubation at 37° C., 0.1% DMSO", "source_text": "The most common variant sequence of human TLR7 (represented by the EMBL sequence AF240467) was cloned into the mammalian cell expression vector pUNO and transfected into a HEK293 cell line already stably expressing the pNiFty2-SEAP reporter plasmid; integration of the reporter gene was maintained by selection with the antibiotic zeocin. Transfectants with stable TLR7 expression were selected using the antibiotic blasticidin. In this reporter cell-line, expression of secreted alkaline phosphatase (SEAP) is controlled by an NFkB/ELAM-1 composite promoter comprising five NFkB sites combined with the proximal ELAM-1 promoter. TLR signaling leads to the translocation of NFkB and activation of the promoter results in expression of the SEAP gene. TLR7-specific activation was assessed by determining the level of SEAP produced following overnight incubation of the cells at 37° C. with the standard compound in the presence of 0.1% (v/v) dimethylsulfoxide (DMSO). Concentration dependent induction of SEAP production by compounds was expressed as the concentration of compound which produced half of the maximal level of SEAP induction for that compound (pEC50)."}, "[2]": {"tested_on": "Male Brown Norway rats", "assay": "Antigen-induced pulmonary inflammation in a rat asthma model (OVA challenge, BALF)", "format": "in vivo", "settings": "BALF 48 h after challenge, Mean ± SE (n = 8)", "excerpt": "Rats were sensitised and challenged to produce allergic airway inflammation in a similar manner to that described by Underwood et al (British Journal of Pharmacology 2002; 137: 263-275, 2002). Male Brown Norway rats were sensitized subcutaneously with ovalbumin (OVA) and aluminum hydroxide on day 0, and challenged with aerosolized OVA solution on day14."}, "[3]": {"settings": "0.1 mg/kg intratracheally 24 h before and 24 h after OVA-challenge"}, "[4]": {"settings": "1 mg/kg intratracheally 24 h before and 24 h after OVA-challenge"}},
  "data": [
    {"smiles": "CCCCc1nc2c(N)nc3ccccc3c2n1CCCN(Cc1ccc(CC(=O)OC)cc1)C(=O)CN(C)C", "note": "[Example 3, Methyl 2-(4-((N-(3-(4-amino-2-butyl-1H-imidazo[4,5-c]quinolin-1-yl)propyl)-2-(dimethylamino)acetamido)methyl)phenyl)acetate]", "values": [
      {"measurement": "EC50", "setting": "[1]", "value": 79.4, "unit": "nM"},
      {"measurement": "Eosinophiles (cells/BALF)", "setting": "[2]; [3]", "value": "67.2 ± 16.3", "unit": "cells/BALF"},
      {"measurement": "IL-5 (pg/ml BALF)", "setting": "[2]; [3]", "value": "18.0 ± 8.7", "unit": "pg/ml BALF"},
      {"measurement": "IL-13 (pg/ml BALF)", "setting": "[2]; [3]", "value": "<4.9", "unit": "pg/ml BALF"},
      {"measurement": "Eosinophiles (cells/BALF)", "setting": "[2]; [4]", "value": "36.2 ± 11.3", "unit": "cells/BALF"},
      {"measurement": "IL-5 (pg/ml BALF)", "setting": "[2]; [4]", "value": "11.3 ± 7.5", "unit": "pg/ml BALF"},
      {"measurement": "IL-13 (pg/ml BALF)", "setting": "[2]; [4]", "value": "<4.9", "unit": "pg/ml BALF"}
    ]},
    {"smiles": "COCCc1nc2c(N)nc3ccccc3c2n1CCCN(Cc1cccc(CC(=O)OC)c1)C(=O)CN1CCN(CCOC)CC1", "note": "[Example 73, Methyl 2-(3-((N-(3-(4-amino-2-(2-methoxyethyl)-1H-imidazo[4,5-c]quinolin-1-yl)propyl)-2-(4-(2-methoxyethyl)piperazin-1-yl)acetamido)methyl)phenyl)acetate]", "values": [
      {"measurement": "EC50", "setting": "[1]", "value": 501, "unit": "nM"}
    ]}
  ]
}
